Read-outs that look alike come from different tables or passages of the source. Where a SMILES comes first, the peptide text is derived from it. Bridges are numbered along the chain shown (N, C = ends). [ ]: non-standard residue; d: D form. The star is where a group is joined. ξ: configuration not given here. NMeY = CN[C@@H](Cc1ccc(O)cc1)C(=O)O; Butanoyl(2ξ-Me) = CCC(C)C(=O)*; Ile(3ξ) = CCC(C)[C@H](N)C(=O)O; Isovaleryl = CC(C)CC(=O)*
Tests used:
human kallikrein 7 = human kallikrein 7 (Homo sapiens, UniProt P49862); experiment: Kallikrein-7 inhibitory activity in vitro (fluorescence-quenched substrate); type: biochemical
Procedure: (§1) IC50 for human kallikrein can be measured using the fluorescence-quenched substrate Ac-Glu-Asp(EDANS)-Lys-Pro-Ale-Leu-Phe^Arg-Leu-Gly-Lys(DABCYL)-Glu-NH2 (where ^ indicates the scissile bond, identified by MS analysis) which can be purchased from Biosyntan (Berlin, Germany). Enzymatic reactions are conducted in 50 mM sodium citrate buffer at pH 5.6 containing 150 mM NaCl and 0.05% (w/v) CHAPS. For the determination of IC50 values the assay is performed at room temperature in 384-well plates. All final assay volumes are 30 μl. Test compounds are dissolved in 90% (v/v) DMSO/water and diluted in water (containing 0.05% (w/v) CHAPS) to 3-times the desired assay concentration. The 11 final compound concentrations are: 0.3 nM, 1 nM, 3 nM, 10 nM, 30 nM, 100 nM, 300 nM, 1 μM, 3 μM, 10 μM and 30 μM. For each assay, 10 μl water/CHAPS (±test compound) are added per well, followed by 10 μl protease solution (diluted with 1.5× assay buffer). The protease concentration in final assay solution is 0.2 nM (according to the enzyme concentrations determined by the Bradford method). After 1 hour of incubation at room temperature, the reaction is started by addition of 10 μl substrate solution (substrate dissolved in 1.5× assay buffer, final concentration is 2 μM). […] The IC50 value is calculated from the plot of percentage of inhibition vs. inhibitor concentration using non-linear regression analysis software (XLfit, Vers. 4.0; ID Business Solution Ltd., Guildford, Surrey, UK).
The fluorescence-quenched substrate Ac-Glu-Asp(EDANS)-Lys-Pro-Ale-Leu-Phe^Arg-Leu-Gly-Lys(DABCYL)-Glu-NH2 (where ^ indicates the scissile bond, identified by MS analysis) is purchased from Biosyntan (Berlin, Germany) and kept as a 5 mM stock solution in DMSO at −20° C. All other chemicals are of analytical grade.
Enzymatic reactions are conducted in 50 mM sodium citrate buffer at pH 5.6 containing 150 mM NaCl and 0.05% (w/v) CHAPS.
All protein and peptide containing solutions are handled in siliconized tubes (Life Systems Design, Merenschwand, Switzerland). The compound solutions as well as the enzyme and the substrate solutions are transferred to the 384-well plates (black Cliniplate; cat. no. 95040020 Labsystems Oy, Finland) by means of a CyBi-Well 96-channel pipettor (CyBio AG, Jena, Germany).
(§2) For fluorescence intensity (FI) measurements an Ultra Evolution reader (TECAN, Maennedorf, Switzerland) is used. The instrument is equipped with a combination of a 350 nm (20 nm bandwidth) and a 500 nm (25 nm bandwidth) bandpass filter for fluorescence excitation and emission acquisition, respectively. To increase the signal:background ratio, an appropriate dichroic mirror is employed. The optical filters and the dichroic mirror are purchased from TECAN. The fluorophores in each well are excited by three flashes per measurement.
as §1, with “For” for “IC50 for human kallikrein can be measured using the fluorescence-quenched substrate Ac-Glu-Asp(EDANS)-Lys-Pro-Ale-Leu-Phe^Arg-Leu-Gly-Lys(DABCYL)-Glu-NH2 (where ^ indicates the scissile bond, identified by MS analysis) which can be purchased from Biosyntan (Berlin, Germany). Enzymatic reactions are conducted in 50 mM sodium citrate buffer at pH 5.6 containing 150 mM NaCl and 0.05% (w/v) CHAPS. For”, “volumes were” for “volumes are”, “concentration was” for “concentration is”

[1] = target: T1, Human neutrophil elastase (Homo sapiens, UniProt P08246); experiment: HNE inhibitory activity in vitro (fluorescence-quenched substrate); type: biochemical
T1 construct: purchased Elastin Products Company, Inc. (EPC, Owensville, USA) SE563
T1 sequence (P08246 30-267): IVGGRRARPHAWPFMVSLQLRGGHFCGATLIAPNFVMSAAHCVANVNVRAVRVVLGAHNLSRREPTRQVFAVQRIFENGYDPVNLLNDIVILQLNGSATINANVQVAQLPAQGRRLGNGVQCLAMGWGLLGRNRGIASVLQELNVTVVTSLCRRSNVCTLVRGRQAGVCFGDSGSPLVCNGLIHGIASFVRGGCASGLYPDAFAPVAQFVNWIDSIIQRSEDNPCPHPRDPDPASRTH
Procedure: Human neutrophil elastase (cat. no. SE563) is purchased from Elastin Products Company, Inc. (EPC, Owensville, USA). The dry powder (purity >95% stated by the supplier) was dissolved in 20 mM sodium acetate buffer, pH 5.0, 50% (v/v) glycerol, and frozen at −80° C. in aliquots.
The fluorescence-quenched substrate (DABCYL-Ser-Glu-Val^Asn-Leu-Asp-Ala-Glu-Phe-EDANS, where ^ indicates the scissile bond, identified by MS analysis) was purchased from Bachem AG (Bubendorf, Switzerland), and kept as a 5 mM stock solution in DMSO at −20° C. All other chemicals were of analytical grade.
Enzymatic reactions were conducted in 100 mM Tris/HCl buffer at pH 7.5, containing 500 mM NaCl, and 0.05% (w/v) CHAPS.
All protein and peptide containing solutions are handled in siliconized tubes (Life Systems Design, Merenschwand, Switzerland).
The compound solutions as well as the enzyme and the substrate solutions are transferred to the 384-well plates (black Cliniplate; cat. no. 95040020 Labsystems Oy, Finland) by means of a CyBi-Well 96-channel pipettor (CyBio AG, Jena, Germany).
as §2

Crl:NMRI mice = experiment: Anti-inflammatory activity in murine model of allergic contact dermatitis (ACD), oxazolone; type: in vivo
Procedure: Method: Crl:NMRI mice were sensitized on the shaved abdomen with 50 μl of 2% oxazolone on day 1 and challenged with 10 μl oxazolone on the inner surface of the right ear on day 8. The unchallenged left ears served as normal controls and dermatitis was evaluated from the difference in auricular weight (taken as a measure of inflammatory swelling) on day 9. The animals were treated topically with 10 μl test compound or the solvent only 30 min after the challenge. The efficacy of the treatment was calculated as the percentage inhibition of inflammatory auricular swelling relative to animals treated with the vehicle alone.

human chymotrypsin = experiment: Inhibition of human chymotrypsin; type: biochemical
[2] = Table 14, concentration of test compound 10 mM
[3] = Table 14, concentration of test compound 30 mM
[4] = Table 11, read-out: hKallikrein7 IC 50
[5] = Table 11, read-out: human neutrophile elastase IC 50

Sequence of human kallikrein 7 (P49862 30-253): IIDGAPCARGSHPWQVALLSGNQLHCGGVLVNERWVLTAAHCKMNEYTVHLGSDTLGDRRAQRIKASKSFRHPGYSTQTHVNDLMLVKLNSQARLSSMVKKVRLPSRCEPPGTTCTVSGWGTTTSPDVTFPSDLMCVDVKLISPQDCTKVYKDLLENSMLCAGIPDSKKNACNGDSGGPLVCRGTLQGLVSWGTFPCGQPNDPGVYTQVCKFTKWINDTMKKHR

SMILES: CCC(C)C1NC(=O)C(Cc2ccc(O)cc2)N(C)C(=O)C(C(C)CC)N2C(=O)C(CCC2OCc2ccccc2)NC(=O)C(CC(C)C)NC(=O)C(NC(=O)C(CCC(N)=O)NC(=O)C(C)C)C(C)OC1=O (stereo not shown) [example 9]
- IC50 (human kallikrein 7; hKallikrein7 IC 50, Table 11): 2 nM
- IC50 [1]: 3 nM
- % Inhibition of inflammatory swelling (Crl:NMRI mice; [2]): 42%
- % Inhibition of inflammatory swelling (Crl:NMRI mice; [3]): 38%

SMILES: CCOC1CCC2NC(=O)C(CC(C)C)NC(=O)C(NC(=O)C(CCC(N)=O)NC(=O)C(C)C)C(C)OC(=O)C(C(C)CC)NC(=O)C(Cc3ccc(O)cc3)N(C)C(=O)C(C(C)CC)N1C2=O (stereo not shown) [example 10]
- IC50 (human kallikrein 7; hKallikrein7 IC 50, Table 11): 3.5 nM
- IC50 [1]: 9 nM
- % Inhibition of inflammatory swelling (Crl:NMRI mice; [2]): 22%
- % Inhibition of inflammatory swelling (Crl:NMRI mice; [3]): 25%

SMILES: CCC(C)C1NC(=O)C(Cc2ccc(OCc3cc(C)n(C)n3)cc2)N(C)C(=O)C(C(C)CC)N2C(=O)C(CCC2O)NC(=O)C(CC(C)C)NC(=O)C(NC(=O)C(CCC(N)=O)NC(=O)C(C)C)C(C)OC1=O (stereo not shown) [example 43]
- IC50 (human kallikrein 7; [4]): 0.2 nM
- IC50 [1, 5]: 1 nM
- % Inhibition of inflammatory swelling (Crl:NMRI mice; [2]): 42%
- % Inhibition of inflammatory swelling (Crl:NMRI mice; [3]): 55%

SMILES: CC(C)CC(=O)N[C@@H](CCC(N)=O)C(=O)N[C@@H]1C(=O)N[C@@H](CC(C)C)C(=O)NC2CC[C@H](O)N(C2=O)[C@@H](Cc2ccccc2)C(=O)N(C)[C@@H](Cc2ccc(O)cc2)C(=O)N[C@@H](C(C)C)C(=O)O[C@@H]1C (stereo partly shown) [formula VIII]
- IC50 (human chymotrypsin): ~4 nM
- IC50 (human kallikrein 7; read-out: IC50 for human kallikrein 7): < 3 nM
- IC50 ([1]; read-out: IC50 human neutrophile elastase): ~2.5 nM

SMILES: CCC(C)[C@@H]1NC(=O)[C@H](Cc2ccc(O)cc2)N(C)C(=O)[C@H](C(C)CC)N2C(=O)C(CC[C@@H]2O)NC(=O)[C@H](CC(C)C)NC(=O)[C@@H](NC(=O)[C@H](CCC(N)=O)NC(=O)c2ccccc2)[C@@H](C)OC1=O (stereo partly shown) [formula XIII]
- IC50 (human kallikrein 7): 0.7 nM
- IC50 [1]: 30 nM

SMILES: CCC(C)[C@@H]1NC(=O)[C@H](Cc2ccc(O)cc2)N(C)C(=O)[C@H](C(C)CC)N2C(=O)C(CC[C@@H]2O)NC(=O)[C@H](CC(C)C)NC(=O)[C@@H](NC(=O)[C@H](CCC(N)=O)NC(C)=O)[C@@H](C)OC1=O (stereo partly shown) [formula XII]
- IC50 (human kallikrein 7; hKallikrein7 IC 50, Table 11): 4 nM
- IC50 [1]: 50 nM

SMILES: CCC(C)C(=O)N[C@@H](CCC(N)=O)C(=O)N[C@@H]1C(=O)N[C@@H](CC(C)C)C(=O)N2CCC[C@H]2C(=O)N[C@@H](C(C)CC)C(=O)N(C)[C@@H](Cc2ccc(O)cc2)C(=O)N[C@@H](C(C)CC)C(=O)O[C@@H]1C (stereo partly shown) [formula XIV] ({Butanoyl(2ξ-Me)}-QTLP[Ile(3ξ)][NMeY][Ile(3ξ)]; ester 2-C)
- IC50 (human kallikrein 7; hKallikrein7 IC 50, Table 11): 200 nM
- IC50 [1]: 2700 nM

SMILES: CCC(C)[C@@H]1NC(=O)[C@H](Cc2ccc(O)cc2)N(C)C(=O)[C@H](Cc2ccccc2)N2C(=O)C(CC[C@@H]2O)NC(=O)[C@H](CC(C)C)NC(=O)[C@@H](NC(=O)[C@H](CCCNC(N)=O)NC(=O)C(C)C)[C@@H](C)OC1=O (stereo partly shown) [formula XV]
- IC50 (human kallikrein 7; hKallikrein7 IC 50, Table 11): 4 nM
- IC50 [1]: 80 nM

SMILES: CC(C)CC(=O)N[C@@H](CCC(N)=O)C(=O)N[C@@H]1C(=O)N[C@@H](CC(C)C)C(=O)N2CCC[C@@H]2C(=O)N[C@@H](Cc2ccccc2)C(=O)N[C@@H](Cc2ccc(O)cc2)C(=O)N[C@@H](C(C)C)C(=O)O[C@@H]1C [formula X] (Isovaleryl-QTL[dP]FYV; ester 2-C)
- IC50 (human kallikrein 7; [4]): 20 nM
- IC50 [1, 5]: 200 nM
